Test results reported in ChEMBL document CHEMBL1201862, “PubChem BioAssay data set” (2004).
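A five-concentration, 48-hour dose response in 96-well plates underlies each endpoint, interpolated linearly between surrounding concentrations. GI50 is the concentration that inhibits growth by half.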 The source made the active and inactive calls. No stated cut-off is given here; in the data, active = GI50 up to about 1.1 µM and inactive = higher.

Legend:
Test in all cases: NCI-60 cell line screen, 48 h
CCRF-CEM = test system: CCRF-CEM
MDA-MB-435 = test system: MDA-MB-435
UACC-257 = test system: UACC-257
A498 = test system: A498
KM12 = test system: KM12
HCT-116 = test system: HCT-116
MOLT-4 = test system: MOLT-4
OVCAR-3 = test system: OVCAR-3
DMS-114 = test system: DMS-114
786-0 = test system: 786-0
SK-MEL-28 = test system: SK-MEL-28
NCI-H522 = test system: NCI-H522
MDA-MB-231 = test system: MDA-MB-231
RPMI-8226 = test system: RPMI-8226
SN12C = test system: SN12C
SR = test system: SR
A549 = test system: A549
K562 = test system: K562
SNB-78 = test system: SNB-78
M19-MEL = test system: M19-MEL

| Structure (SMILES) | GI50 (CCRF-CEM) | GI50 (MDA-MB-435) | GI50 (UACC-257) | GI50 (A498) | GI50 (KM12) | GI50 (HCT-116) | GI50 (MOLT-4) | GI50 (OVCAR-3) | GI50 (DMS-114) | GI50 (786-0) | GI50 (SK-MEL-28) | GI50 (NCI-H522) | GI50 (MDA-MB-231) | GI50 (RPMI-8226) | GI50 (SN12C) | GI50 (SR) | GI50 (A549) | GI50 (K562) | GI50 (SNB-78) | GI50 (M19-MEL) |
| --- | --- | --- | --- | --- | --- | --- | --- | --- | --- | --- | --- | --- | --- | --- | --- | --- | --- | --- | --- | --- |
| CC1=NN(C(=O)c2ccccc2O)C(=O)/C1=C/c1ccccc1O | 0.164 µM (active) | 0.0612 µM (active) | 2.31 µM (inactive) | 0.0327 µM (active) | 2.76 µM (inactive) | 0.107 µM (active) | 0.295 µM (active) | 0.215 µM (active) | 0.0853 µM (active) | 0.521 µM (active) | 18.5 µM (inactive) | 0.497 µM (active) | 0.381 µM (active) | 0.931 µM (active) | 0.579 µM (active) | 0.251 µM (active) | 0.157 µM (active) | 0.0914 µM (active) |  |  |
| Nn1c(=O)n(Cc2ccccc2)n(-c2ccccc2)c1=O | > 100 µM (inactive) |  | > 100 µM (inactive) | > 100 µM (inactive) | > 100 µM (inactive) | > 100 µM (inactive) | > 100 µM (inactive) | > 100 µM (inactive) |  | > 100 µM (inactive) | > 100 µM (inactive) | > 100 µM (inactive) |  | > 100 µM (inactive) | > 100 µM (inactive) | > 100 µM (inactive) | > 100 µM (inactive) | > 100 µM (inactive) | > 100 µM (inactive) |  |
| O=[N+]([O-])/C=C1\COCc2cc3c(cc21)OCO3 | 10.6 µM (inactive) | 14.5 µM (inactive) | 19.7 µM (inactive) | 18.8 µM (inactive) | 15.1 µM (inactive) | 21.2 µM (inactive) | 24.5 µM (inactive) | 16.8 µM (inactive) |  | 19.3 µM (inactive) | 17.5 µM (inactive) | 20.7 µM (inactive) | 14.4 µM (inactive) | 21.7 µM (inactive) | 22.5 µM (inactive) | 18.9 µM (inactive) | 22 µM (inactive) | 27.2 µM (inactive) |  |  |
| Brc1cc2c(cc1C1SCCS1)OCO2 | > 100 µM (inactive) |  | > 100 µM (inactive) | > 100 µM (inactive) | > 100 µM (inactive) | > 100 µM (inactive) | 80.4 µM (inactive) | > 100 µM (inactive) | 37.3 µM (inactive) | > 100 µM (inactive) | > 100 µM (inactive) | > 100 µM (inactive) |  | 89.5 µM (inactive) |  | > 100 µM (inactive) | > 100 µM (inactive) | 59.2 µM (inactive) | > 100 µM (inactive) |  |
| Cn1nc(-c2ccccc2)c(C(=O)/C=C/c2ccc(F)cc2)c(N2CCOCC2)c1=O | 17.7 µM (inactive) |  |  | 17.7 µM (inactive) |  | 4.21 µM (inactive) | 14.2 µM (inactive) |  | 15.9 µM (inactive) | 16 µM (inactive) | 15.8 µM (inactive) | 14.5 µM (inactive) |  | 4.57 µM (inactive) | 28.3 µM (inactive) |  | 17.4 µM (inactive) | 16.8 µM (inactive) |  | 18.5 µM (inactive) |
| COc1ccc2nc3ccc(OC)cc3c(SCCCl)c2c1 | 2.75 µM (inactive) | 9.95 µM (inactive) | > 46.1 µM (inactive) | 31.1 µM (inactive) | 17.5 µM (inactive) | 6.22 µM (inactive) | 2.79 µM (inactive) | 18.2 µM (inactive) |  | 6.24 µM (inactive) | 31.7 µM (inactive) | 3.03 µM (inactive) | 18.8 µM (inactive) | 2.95 µM (inactive) | 12.2 µM (inactive) | 4.8 µM (inactive) | 39.2 µM (inactive) | 9.66 µM (inactive) |  |  |
| CCN(CC)CCCNc1nccc2c(C)c3[nH]c4ccncc4c(=O)c3cc12 | 0.746 µM (active) |  | 6.84 µM (inactive) | 7.28 µM (inactive) | 3.52 µM (inactive) | 0.514 µM (active) | 0.33 µM (active) | 1.8 µM (inactive) | 0.494 µM (active) | 0.977 µM (active) | 3.27 µM (inactive) | 0.52 µM (active) |  | 2.64 µM (inactive) | 1.5 µM (inactive) | 0.13 µM (active) | 3.01 µM (inactive) | 2.61 µM (inactive) | 2.2 µM (inactive) |  |
| O=c1c2c([nH]c3cc4c(cc13)OCO4)-c1ccccc1C2 | 17.7 µM (inactive) |  |  |  | 18.6 µM (inactive) | 15.6 µM (inactive) | 24.7 µM (inactive) | 22.5 µM (inactive) |  | 28.1 µM (inactive) | 22.6 µM (inactive) | 22.4 µM (inactive) |  | 15 µM (inactive) | 30.3 µM (inactive) | 18.1 µM (inactive) | 27.1 µM (inactive) | 27.2 µM (inactive) | 30.5 µM (inactive) |  |
| O=C(N[C@H]1CC2(C=C(I)C(=O)C(I)=C2)OC1=O)OCc1ccccc1 | 2.61 µM (inactive) |  | 16.4 µM (inactive) | > 100 µM (inactive) | 16 µM (inactive) | 15.9 µM (inactive) |  | 17.3 µM (inactive) | 19.8 µM (inactive) | 20.8 µM (inactive) | 18.5 µM (inactive) | 13.4 µM (inactive) |  | 26.2 µM (inactive) | 18.2 µM (inactive) |  | 42.8 µM (inactive) | 10.4 µM (inactive) | 17.4 µM (inactive) |  |
| COc1cc2c[n+](C)c3c(c2cc1OC)Cc1cc2c(cc1-3)OCO2 | 71.4 µM (inactive) | > 100 µM (inactive) | > 100 µM (inactive) | > 100 µM (inactive) | > 100 µM (inactive) | > 100 µM (inactive) | 48.9 µM (inactive) | > 100 µM (inactive) |  | > 100 µM (inactive) | > 100 µM (inactive) | 52.4 µM (inactive) | > 100 µM (inactive) | 65 µM (inactive) | > 100 µM (inactive) | 29.1 µM (inactive) | > 100 µM (inactive) | > 100 µM (inactive) |  |  |
| COC1=CC(=O)c2c(c(-c3nc(C)cs3)cn2C)C1=O | 4.5 µM (inactive) | 0.409 µM (active) | 1.82 µM (inactive) | 5.82 µM (inactive) | 3.95 µM (inactive) | 2.99 µM (inactive) | 15.2 µM (inactive) | 1.75 µM (inactive) |  | 18.1 µM (inactive) | 3.72 µM (inactive) | 1.06 µM (active) | 15.7 µM (inactive) | 2.52 µM (inactive) | 5.79 µM (inactive) | 4.95 µM (inactive) | 3.32 µM (inactive) | 2.62 µM (inactive) |  |  |
| CC[C@H]1C=CCC[C@@]2(C[C@@H]3CC[C@@H]4[C@H](C(=O)OCCCCCCCCCCCCCCCC(=O)O)[C@]5(CCC[C@@H](C)O5)NC(=[N+]34)N2)O1 [CRAMBESCIDIN 657] | 0.005 µM (active) | 0.141 µM (active) | 0.12 µM (active) | 0.306 µM (active) | 0.207 µM (active) | 0.169 µM (active) | 0.109 µM (active) | 0.301 µM (active) |  | 0.0964 µM (active) | 0.743 µM (active) | 0.131 µM (active) | 0.281 µM (active) | 0.109 µM (active) | 0.418 µM (active) | 0.0521 µM (active) | 0.164 µM (active) | 0.121 µM (active) |  |  |
